According to patent US20120059021A1, “COMPOSITIONS AND METHODS FOR TREATING CANCER AND METHODS FOR PREDICTING A RESPONSE TO SUCH TREATMENTS” (UNIVERSITY OF WASHINGTON, priority 2008, published 2012):

Key:
[1] = test system: β-catenin; experiment: Immunoblot for β-catenin phosphorylation at Ser33/Ser37/Thr41 in A375 cells; type: cell-based, human
[2] = test system: A375 melanoma cells; experiment: Isobologram analysis of cell viability (CellTiter-Glo); type: cell-based, human
Description: Isobologram Analysis of Cell Viability. A375 melanoma cells were seeded in 96-well plates at a concentration of 8,000 cells/well in 100 μl of growth media. 24 hours after plating, cells were treated with all combinations of 2-fold dilutions of WNT3A CM ranging from 20% to 0% and 2-fold dilutions of PLX4720 ranging from 5 μM-0 μM for 48 hours. 10 uL of CellTiter-Glo (Promega Madison, Wis.) was added to each well and total luminescence was measured on an Envision multilabel plate reader (Perkin Elmer Waltham, Mass.). Each condition within an experiment was assayed in triplicate wells and three independent experiments were performed.
Dose-effect analyses, including combination indices, dose reduction indices and median-effect analysis for FIGS. 9A-9C and FIGS. 11A-11C were performed using the method of Chou and Talay (55) via the CalcuSyn software suite (Biosoft, Cambridge UK), version 2.1.

[3] = test system: A375 cells; experiment: Spheroid assay in three-dimensional collagen matrix; type: cell-based, human
Description: Spheroid Assay. A375 cells were used for the spheroid assays. Spheroids were formed and implanted in collagen as previously described (54). Spheroids were treated with indicated conditions 30 minutes after collagen polymerization. Images were obtained on a Nikon TiE inverted widefield high-resolution microscope (Nikon Melville, N.Y.).

[4] = test system: COLO829; experiment: qPCR of endogenous Wnt target gene AXIN2, COLO829; type: cell-based, human; conditions: WNT3A CM, 2 μM PLX4720, 24 hours
Text: (§1) RNA purification and qRT-PCR analysis. RNA was purified using the RNeasy kit following the manufacturer's protocol (Qiagen; Maryland, Md.). cDNA was synthesized using RevertAid™ M-MuLV Reverse Transcriptase (Fermentas; Ontario, CAN). Light Cycler FastStart DNA Master SYBR Green1 (Roche; Mannheim, Germany) was used for real-time PCR as previously described (53). Quantitative PCR results presented in the manuscript are averages of a minimum of three biologic replicates.

[5] = test system: ppERK1/2; experiment: Capillary-based isoelectric focusing of ppERK1/2 in fine needle aspirates of xenograft tumors; type: in vivo, mouse; conditions: two hours after initial 50 mg/kg PLX4720 vs baseline
Description: FIG. 10A depicts a schematic representation of the capillary-based isoelectric focusing method of detecting levels of ppERK1/2 in fine needle aspirates of xenograft tumors from vehicle or PLX4720 treated mice (top panel). Fine needle aspiration procedures (FNA) were performed on xenograft tumors three days prior to treatment for baseline samples and 2 hours after the initial oral gavage treatment of 50 mg/kg PLX4720. FNAs were analyzed for ppERK1/2 and HSP70 for normalization by capillary-based isoelectric focusing on a Nanopro1000 instrument (Cell Biosciences)(bottom panel). […] FNAs of xenograft tumors three days before treatment (baseline) or two hours following the initial treatment of 50 mg/kg PLX4720 were analyzed for ppERK1/2 and normalized to levels of HSP70. Columns and error bars represent the mean and standard deviation, respectively, from three xenograft tumors. […] FIG. 10D is a graph of results from an experiment in which xenograft tumors from FIG. 2A were sectioned, stained with hematoxylin- and eosin, and analyzed for mitotic cells by microscopy under high-power as described elsewhere herein. […]
Xenograft assays. […] Tumor size was determined by caliper measurements of tumor length and width every 3 to 4 days. Tumor volume was then calculated using the following formula: volume=(width)^2×length/2. […]

[6] = test system: A375 cells; experiment: Immunoblot of apoptosis markers (cleaved caspase-3, cleaved PARP1) in A375 cells; type: cell-based, human
[7] = test system: MEL624; experiment: Flow cytometry for active (cleaved) caspase-3, MEL624; type: cell-based, human; conditions: WNT3A, 2 μM PLX4720, 24 hours
Description: Flow cytometry for Active Caspase-3. Cells were seeded in a 6-well dish at a density to achieve 90-100% confluence at harvest. 24 hours after seeding, cells were treated with the indicated conditions for the indicated amount of time. At the time of collection, supernatants were collected and pooled with trypsinized cells. Cells were fixed with 4% paraformaldehyde and permeabilized according to vendor's protocol for Cleaved Caspase-3 (Asp175) Antibody (AlexaFluor 488 Conjugate) (catalog #9669) (Cell Signaling, Beverly Mass.). The antibody was used at a final dilution of 1:100. Flow was performed on a BD FACSCanto H, and data analysed with FlowJo 8.8.6 (Tree Star) software. Experiments were performed with biological triplicates and data are representative of at least three independent experiments. For experiments involving siRNAs, cells were reverse transfected with 20 nM siRNA in 6-well dishes in triplicate with RNAiMax according to manufacturer's protocol. 48 hours following transfection, cells were treated with the indicated conditions for 24 hours and then harvested for analysis. Cells were harvested, stained, and analyzed as described above.

[8] = test system: AXIN1; experiment: qRT-PCR of AXIN1 mRNA in A375 cells; type: cell-based, human; conditions: A375, 2 μM PLX4720, 24 hours
Text: as §1

CCCS(=O)(=O)Nc1ccc(F)c(C(=O)c2c[nH]c3ncc(Cl)cc23)c1F [PLX4720, N-[3-[(5-Chloro-1H-pyrrolo[2,3-b]pyridin-3-yl)carbonyl]-2,4-difluorophenyl]-1-propanesulfonamide]
phosphorylation of β-catenin at GSK3β sites (Ser33/Ser37/Thr41) [1]: decreased phosphorylation of β-catenin | drug reduction indices ([2]; combination of WNT3A CM and PLX4720, at 50% growth inhibition): 8.1 | combination indices (inhibition of cell growth) ([2]; combination of WNT3A and PLX4720, 48 hours): less than 1 | spheroid size ([3]; A375:GFP- and A375:WNT3A-derived spheroids, 2 μM PLX4720, 72 hours): decreased spheroid size | dead cells (EtBr staining) ([3]; spheroids expressing WNT3A, 2 μM PLX4720, 24 hours): detection of dead cells | number of invasive cells ([3]; spheroids expressing WNT3A, 2 μM PLX4720, 72 hours): dramatic decrease in the number of invasive cells | SYNERGISTIC WNT ACTIVATION WITH PLX4720? [4]: YES | ppERK2 in xenograft tumors (normalized to HSP70) [5]: significantly less ppERK2 | time at which cleaved caspase-3 was first detected ([6]; A375, WNT3A and PLX4720 time course): 12 to 16 h | cleavage of the caspase-3 substrate PARP1 ([6]; A375, combined WNT3A and 2 μM PLX4720, 24 hours): synergistic cleavage of the caspase-3 substrate, PARP1 | caspase3 activation ([6]; A375, longer treatment with PLX4720, no exogenous WNT3A): led to activation of caspase3 | SYNERGISTIC APOPTOSIS WITH WNT AND PLX4720? [7]: YES | AXIN1 gene expression (mRNA) [8]: no transcriptional regulation of AXIN1 gene expression
